# Peptide text beside a SMILES is read from it. * marks the point of attachment. For = O=C*
# Key:
# mouse Fpr3 (Fpr-rs1) [1] = target: T1, mouse Fpr3 (Fpr-rs1) (Mus musculus, UniProt O08790); test: Concentration-response Ca2+ imaging of Fpr3-transfected HEK293T cells (Fig. 2f, h, j); assay type: cell-based; conditions: for EC50: Ca2+ responses of Fpr3-transfected HEK293T, Fluo-4/AM, FLIPR, buffer C1 pH 7.2, Fig. 2f, h, j
# T1 construct: expressed in transfected cells; host or cells: HEK293T (DSMZ # ACC-635), transient transfection with jetPEI
# T1 sequence (O08790 1-351): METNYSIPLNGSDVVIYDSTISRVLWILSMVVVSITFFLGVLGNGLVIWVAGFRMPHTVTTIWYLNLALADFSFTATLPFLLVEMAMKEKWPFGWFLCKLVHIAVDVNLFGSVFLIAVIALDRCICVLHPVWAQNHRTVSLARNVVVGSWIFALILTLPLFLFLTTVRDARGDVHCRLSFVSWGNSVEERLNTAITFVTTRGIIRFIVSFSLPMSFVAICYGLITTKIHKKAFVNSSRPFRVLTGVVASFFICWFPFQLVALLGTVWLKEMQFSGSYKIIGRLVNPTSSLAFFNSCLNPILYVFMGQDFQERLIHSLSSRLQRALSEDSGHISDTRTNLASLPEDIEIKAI
# Procedure: (§1) An Fpr3 gene subcloned from genomic DNA of C57BL/6J mice into pcDNA3.1 (Invitrogen) was used in heterologous experiments[21],[80]. HEK293T (DSMZ # ACC-635) cells were seeded at 20–30% confluence on poly-D-lysine-coated (10 µg/ml in PBS) black 96-well µCLEAR-Plates (Greiner Bio-One). Cells were transfected 24 h later using jetPEI™ (Polyplus-transfection SA) according to the manufacturer’s protocol for 96-well transfections. For Ca^2+ imaging experiments, 0.125 µg of DNA plasmid encoding Fpr3 were cotransfected with equal amounts of a plasmid encoding Gα16, a promiscuous G protein α-subunit. Ca^2+ signals to agonist stimulation were recorded 48 h post transfection using the Ca^2+ indicator dye Fluo-4/AM (Molecular Probes) and a fluorescence imaging plate reader (FLIPR) system (Molecular Devices).
# We used custom-made peptides with a length of 6–21 amino acids to screen for agonists. Sequences of fMet peptides were designed according to motifs present at the N-termini of 15,125 specific bacterial proteins as annotated in UniProt. Peptides were chemically synthesised, purified, and verified by mass spectroscopy (MALDI-TOF) by commercial suppliers. […] Source, sequence and purity of each peptide are listed in Supplementary Data 1. Lyophilised peptides were routinely dissolved in the Ca^2+ imaging assay buffer C1 (130 mM NaCl, 10 mM HEPES, 5 mM KCl, 2 mM CaCl2, 5 mM glucose, pH 7.2) as 0.2–1 mM stock solutions and kept in small aliquots at −20 °C until use.
# mouse Fpr3 (Fpr-rs1) [2] = target: T1, mouse Fpr3 (Fpr-rs1); test: Heterologous expression / high-throughput Ca2+ imaging agonist screen and sequence selectivity of Fpr3 (Fig. 1a, 2c-e, 2g, 2i); assay type: cell-based; conditions: 10 µM; Fpr3-transfected HEK293T; Fig. 2g
# Procedure: as §1, with “Devices). Cotransfection of a plasmid encoding Gα16 with an empty vector used to subclone Fpr3 gave no agonist-evoked Ca^2+ responses.” for “Devices).”
# We used custom-made peptides with a length of 6–21 amino acids to screen for agonists. Sequences of fMet peptides were designed according to motifs present at the N-termini of 15,125 specific bacterial proteins as annotated in UniProt. Peptides were chemically synthesised, purified, and verified by mass spectroscopy (MALDI-TOF) by commercial suppliers. Purity of all peptides was >95%. Source, sequence and purity of each peptide are listed in Supplementary Data 1. Lyophilised peptides were routinely dissolved in the Ca^2+ imaging assay buffer C1 (130 mM NaCl, 10 mM HEPES, 5 mM KCl, 2 mM CaCl2, 5 mM glucose, pH 7.2) as 0.2–1 mM stock solutions and kept in small aliquots at −20 °C until use. […] The sequences of these peptides exist in proteins from the following bacterial strains[21]: Psychromonas ingrahamii that belongs to a marine ice water microbial community, Desulfotomaculum reducens that is found in deep freshwater lakes, and Pseudomonas grimontii, a plant pathogen. As mice are unlikely to encounter these strains in their natural habitat, these findings are probably not of biological relevance.
Compound,EC50 (mouse Fpr3 (Fpr-rs1) [1]) [nM],"Fpr3 activation by MgrB 9-, 12- and 21-residue variants, in words (mouse Fpr3 (Fpr-rs1) [2])","signals in concentration-response, in words (mouse Fpr3 (Fpr-rs1) [1]; Fpr3-transfected HEK293T, Fig. 2h)"
CC[C@H](C)[C@H](NC(=O)CNC(=O)[C@H](CC(C)C)NC(=O)[C@@H](NC(=O)[C@@H](NC(=O)[C@H](Cc1c[nH]c2ccccc12)NC(=O)[C@H](CCCNC(=N)N)NC(=O)[C@H](Cc1ccccc1)NC(=O)[C@H](CCCCN)NC(=O)[C@H](CCCCN)NC(=O)[C@H](CCSC)NC=O)C(C)C)C(C)C)C(=O)N[C@H](C(=O)O)C(C)C (For-MKKFRWVVLGIV-OH),210,,
f-MKKFRWVVLGIVVVVCLLLWAQ [21-mer peptide],,failed to activate Fpr3,No signals were obtained
CC[C@H](C)[C@H](NC(=O)[C@H](CO)NC(=O)[C@H](Cc1c[nH]c2ccccc12)NC(=O)[C@H](CCCCN)NC(=O)[C@H](Cc1ccccc1)NC(=O)[C@H](CCCCN)NC(=O)[C@H](CCCCN)NC(=O)[C@H](CCSC)NC=O)C(=O)O (For-MKKFKWSI-OH),800,,
